Data taken from the supplement of paper PMC5770543.
± gives the standard deviation.

Experiments:
[1] = tested on: Plasmodium falciparum K1 (chloroquine resistant); experiment: R50 (50% reduction of ring formation, egress/invasion); higher = less potent
Description: (§1)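 P. falciparum asexual blood stages. EC50: sorbitol-synchronized 3D7 rings were treated with 2-fold dilutions from 10 µM for 60 h, with parasitemia read by SYBR Green I fluorescence; EC50 listed as 10 means not determined and is left out. Stage transition screen: ~40-42 hpi schizonts were treated at 1, 3 and 10 µM; new rings were counted by Hoechst flow cytometry and % inhibition is relative to DMSO controls (mean of 3 experiments). R50: concentration giving 50% reduction of new ring formation versus DMSO in 3D7, K1 and KH004-003, from flow cytometry after 12-20 h treatment of schizonts.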

[2] = tested on: Plasmodium falciparum 3D7; experiment: as above
Description: as §1

[3] = tested on: Plasmodium falciparum KH004-003 (artemisinin resistant); experiment: as above
Description: as §1

[4] = tested on: Toxoplasma gondii RH tachyzoites; experiment: % growth inhibition vs DMSO (48 h luciferase); higher = more inhibition; conditions: 10 µM
[5] = tested on: Toxoplasma gondii RH tachyzoites; experiment: median egress time after A23187 ionophore; higher = stronger egress inhibition; conditions: 10 µM; pretreatment time: 24 h
Description: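 T. gondii RH tachyzoites expressing firefly luciferase were grown in HFF monolayers for 48 h with compound. % growth inhibition at 10 µM and EC50 (2-fold dilutions from 10 µM) were read by luminescence relative to 1% DMSO; EC50 listed as 10 (not determined, <80% inhibition) is left out. Plaque assays: 50 tachyzoites per well with 10 µM compound for 8-10 days, giving plaque count and area by crystal violet/ImageJ. Egress: median time to egress after 1 µM A23187 ionophore following 24 h of 10 µM compound (DMSO ~1.8 min; >10 = no egress within 10 min).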

[6] = tested on: Plasmodium falciparum 3D7; experiment: EC50 growth inhibition (60 h, SYBR Green); conditions: stage: ring-stage start
[7] = tested on: Toxoplasma gondii RH tachyzoites; experiment: plaque count per well; higher = less inhibition; extreme values may be limits of the assay; conditions: 10 µM; 8-10 days
Summary of the method: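 Delayed-death inhibition of parasite growth is read from the number of plaques per well. Fifty T. gondii RH tachyzoites went into each well of six-well plates with confluent HFF monolayers preseeded with compound at 10 µM, and after 8 to 10 days the plates were fixed with methanol, stained with crystal violet and counted in ImageJ.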

[8] = tested on: Plasmodium falciparum 3D7; experiment: % inhibition of schizont-to-ring transition vs DMSO; higher = more inhibition
Summary of the method: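 Schizont-to-ring transition inhibition compares new ring formation with that in vehicle controls. Synchronised P. falciparum schizonts (about 40–42 hours post-invasion, 1% parasitemia, 2.5% hematocrit, AlbuMAX-supplemented RPMI) were exposed to 1, 3 or 10 µM compound, after which rings were counted by Hoechst 33342 flow cytometry across three experiments.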
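Throughout, for % growth inhibition vs DMSO (48 h luciferase): tested in triplicate wells of 96-well plates on confluent HFF monolayers, with 1% DMSO wells as negative control in four replicates.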

| SMILES | R50 [1] [µM] | R50 [2] [µM] | R50 [3] [µM] | % growth inhibition [4] [%] | median egress time [5] [min] | EC50 growth inhibition [6] [nM] | plaque count per well [7] | % inhibition of schizont-to-ring transition ([8]; 1 µM) [%] | % inhibition of schizont-to-ring transition ([8]; 3 µM) [%] | % inhibition of schizont-to-ring transition ([8]; 10 µM) [%] |
| --- | --- | --- | --- | --- | --- | --- | --- | --- | --- | --- |
| COc1cccc(C2(C)Nc3ccccc3-c3nc4ccccc4n32)c1 (stereo not drawn) | 1.17 | 1.13 | 0.715 | 12.6 ± 12 | > 10 | 217 | 21 | 66 | 81.1 | 81.2 |
| O=C(NC1CCN(Cc2ccccc2)CC1)c1cc(C(=O)NC2CCN(Cc3ccccc3)CC2)cc(C(=O)NC2CCN(Cc3ccccc3)CC2)c1 | 0.179 | 3.38 | 1.42 | 18.9 ± 16 | 2.33 | 1670 | 35 | 25.8 | 30.4 | 53.7 |
| COc1ccc2c(c1)C1(Nc3ccccc3-c3nc4ccccc4n31)C(=O)N2 (stereo not drawn) | 0.768 | 0.892 | 0.922 | 47.3 ± 3.5 | 2.33 | 138 | – | 62 | 64.1 | 68.6 |
| CCOc1c(Cl)cc(CNC(C)C(O)c2ccccc2)cc1OC (stereo not drawn) | 1.56 | 3.32 | 2.58 | 18.8 ± 18 | 3.47 | 926 | 0 | 2.61 | 19.5 | 72.7 |
| CC1(c2ccccc2)Nc2ccccc2-c2nc3ccccc3n21 (stereo not drawn) | 0.955 | 0.768 | 0.275 | 24.3 ± 8 | 4.13 | 194 | – | 56.1 | 77.5 | 79 |
| COc1cccc(NC(=O)[C@H](C(C)C)n2c(=O)[nH]c3ccccc3c2=O)c1 | 0.212 | 0.28 | 0.183 | 76.9 ± 9.3 | 2.67 | 51.4 | – | 79.8 | 80.5 | 79.4 |
| COc1ccc(C2c3ccc4ccccc4c3Oc3ncn(CCCn4ccnc4)c(=N)c32)cc1OC (stereo not drawn) | 2.92 | 2.5 | 2.4 | 65.4 ± 9 | 2.27 | 383 | – | 40 | 73.6 | 75.6 |
| Cc1cc(Nc2ccc(C)c(Cl)c2)n2nc(C(F)(F)F)nc2n1 | 0.212 | 0.274 | 0.1 | 23.8 ± 9.5 | 2.46 | 12.5 | – | 51.6 | 56.6 | 65.1 |
| CCOC(=O)c1c(NC(=O)c2ccccc2)sc2c(O)c(CN(CC)CC)ccc12 | 0.103 | 0.186 | 0.138 | 65.8 ± 12 | 2.13 | 8.57 | – | 57.2 | 69.3 | 71.9 |
| COc1ccc(CCn2c(=N)c(C(=O)NCc3cccnc3)cc3c(=O)n4cccc(C)c4nc32)cc1 | 2.1 | 2.26 | 0.771 | 75.9 ± 1.6 | 2.13 | 353 | – | 40.3 | 65.1 | 66.9 |
| CC(C)(C)c1ccc(O)c(CNC2CCCCC2)c1 | 0.119 | 0.305 | 0.215 | 7.99 ± 2.4 | 2.8 | 93.3 | 0 | 70.4 | 76.8 | 76.9 |
| Cc1cc(NC(=O)C2c3ccccc3C(=O)N(CC(C)C)C2c2cccs2)no1 (stereo not drawn) | 0.307 | 0.363 | 0.43 | < 0 | 5.73 | 64 | 29 | 76.6 | 76.8 | 78.6 |
| COc1cc(OC)c(N(C)C(=O)c2cc3c(s2)-c2ccccc2S(=O)(=O)C3)cc1Cl | 0.933 | 0.868 | 0.352 | < 0 | 8.4 | 1190 | 33 | 55.9 | 60 | 66.3 |
| CCN(Cc1ccccc1)C1CCN(Cc2cc(Br)ccc2O)CC1 | 0.491 | 0.998 | 0.532 | < 0 | > 10 | 310 | 24 | 59.3 | 74.2 | 76.9 |
| CC(=O)NCCc1nc2ccccc2n1Cc1ccc(C(C)C)cc1 | 3.69 | 3.03 | 3.03 | < 0 | 5.47 | 900 | 33 | 37.3 | 61 | 78.1 |
